Results published in patent US9522962B2, “Peptides, conjugates and method for increasing immunogenicity of a vaccine” (Academisch Ziekenhuis Leiden h.o.d.n. LUMC, priority 2010, dated 2016).
Where two headings read alike, the source gives them in different places. Square brackets hold non-standard residues; d marks the D form. Ends that are not written are not given here. * marks the point of attachment. Biotin = O=C1N[C@H]2[C@H](CS[C@H]2CCCCC(=O)*)N1; Ahx = NCCCCCC(=O)O

Tests used:
[1] = test system: antibodies in TETAQUIN® (anti-TTd antibodies); type: binding, human
[2] = test system: antibodies in individual human sera (e.g. serum 034960); test: Tettox ELISA of biotinylated peptides on individual human sera; type: binding; details: human serum 034960 diluted 100x
Method: a 96-wells plate (preferably from Euro-Diagnostica, Arnhem, The Netherlands) is coated with streptavidin. The streptavidin coated 96 wells plate is blocked with PBS containing 5% BSA (200 μl/well, 1 h, room temperature). Subsequently, the plate is washed three times with PBS containing 0.05% TWEEN20® (polysorbate 20). A biotinylated peptide is coated by 1 h incubation at room temperature with 100 μl/well of a 2 μg/ml solution of the biotinylated peptide in PBS containing 1% BSA. The plate is washed three times with PBS containing 0.05% TWEEN20® (polysorbate 20) followed by incubation for 1 h at room temperature with 100 μl serum from […] a human subject as defined above (preferably having a high titer of anti-TTd antibodies) that had been diluted at least 100, 200, 400, 500 or 1000 times and preferably not more than 100,000, 10,000, 7,500, 5,000 or 2,500 times with PBS containing 1% BSA. Then the plate is washed three times with PBS containing 0.05% TWEEN20®(polysorbate 20). Each well is incubated for 1 h at room temperature with a HRP-conjugated IgG antibody (mouse anti-human IgG-HRP monoclonal, clone G18-145, cat no 555788, Becton Dickinson, 100 μl/well of a 1000× dilution in PBS containing 0.05% TWEEN20® (polysorbate 20)) after which the plate is washed three times with PBS containing 0.05% TWEEN20® (polysorbate 20). Development is performed with 2,2′-azino-di-(3-ethylbenzthiazoline sulfonic acid), ABTS+H2O2 1/1000, 100 μl/well. Optical density is measured at 415 nm with a BIO-RAD, model 680, microplate reader. In each plate, preferably a negative contol is included, more preferably at least in triplicate. A preferred negative contol is serum from a human subject without detectable anti-TTd antibodies. Another preferred negative control is a solution of BSA. A peptide according to (ii) above is a peptide according to the invention if it is bound by antibodies in at least 40, 45, 50, 55, 60, 65, 70, 75, 80, 85, 87, 90, 91, 92, 93, 94, 95, 96, 97, 98, 99% most preferably 100% of the tested human serum samples. A peptide is considered to be bound by antibodies in a serum sample if the determined optical density for that particular serum sample is at least 2.0, more preferably 2.5, 3.0, 3.5 or more times higher as compared to the optical density that is determined for the negative control.
Streptavidin coated 96 wells plates (Euro-Diagnostica) were blocked with PBS containing 5% BSA (200 μl/well, 1 h, room temperature). Plates were washed three times with PBS containing 0.05% TWEEN20® (polysorbate 20). Coating of the biotinylated peptides was performed by 1 h incubation at room temperature with 100 μl/well of a 2 μg/ml solution of the biotinylated peptide in PBS containing 1% BSA. Plates were washed three times with PBS containing 0.05% TWEEN20®. Wells were incubated for 1 h at room temperature with either 100 μl TETAQUIN® […] that had been diluted 800× with PBS containing 1% BSA or with 100 μl human serum that had been diluted 100× with PBS containing 1% BSA. Plates were washed three times with PBS containing 0.05% TWEEN20® (polysorbate 20). Each well was incubated for 1 h at room temperature with a HRP-conjugated IgG antibody (mouse anti-human IgG-HRP monoclonal, clone G18-145, cat no 555788, Becton Dickinson, 100 μl/well of a 1000× dilution in PBS containing 0.05% TWEEN20® (polysorbate 20)). Plates were washed three times with PBS containing 0.05% TWEEN20® (polysorbate 20). Development was performed with 2,2′-azino-di-(3-ethylbenzthiazoline sulfonic acid), ABTS+H2O2 1/1000, 100 μl/well. Optical density was measured at 415 nm with a BIO-RAD, model 680, microplate reader.
Thereafter, the inventors tested these 7 peptides on individual sera, because an epitope is needed to which every person makes antibodies.

[3] = test system: OVA-specific CD8 T cells; test: Systemic antigen-specific T cell priming in TNP-BSA immunized mice challenged with TNP-OVA; type: in vivo
Method: Mice were repeatedly immunized with TNP-BSA resulting in high titers of circulating antibodies against the hapten TNP (TNP immunized) or left non-immunized (naïve).
After 1-2 months all mice were injected with naïve OVA-specific CD8 T cells which were labelled with the fluorescent dye CFSE. After 24 hrs the mice were injected with a single dose of TNP-OVA. 3 days later the mice were sacrificed and OVA-specific proliferation of the labelled T cells was analysed in spleen and lymph nodes by flow cytometry (FIGS. 2a and 2b). The symbols represent individual mice. […] Thus, systemic antigen-specific T cell priming can be facilitated by pre-existing circulating antibodies against hapten-epitopes.

[4] = Table 6, conservative substitutions scan of […]

| Molecule | ELISA OD TETAQUIN [1, 4] | ELISA OD SERUM 034960 [2, 4] | further results |
| --- | --- | --- | --- |
| F I G A T E L K K L E S K I N K V F Z O [0942-13] |  |  | ELISA OD TETAQUIN ([1]; Table 5, Ala scan of […]): 0.30; ELISA OD SERUM 034960 ([2]; Table 5, Ala scan of […]): 0.18 |
| F I G I T E L K K L E S K L N K V F Z O (FIGITELKKLESKLNKVF[Ahx]K(Biotin)) [0942-41] | 1.11 | 1.32 |  |
| F I G I T E L K K L E S R I N K V F Z O (FIGITELKKLESRINKVF[Ahx]K(Biotin)) [0942-40] | 1.19 | 1.27 |  |
| F I G I T E L K R L E S K I N K V F Z O (FIGITELKRLESKINKVF[Ahx]K(Biotin)) [0942-36] | 1.12 | 1.23 |  |
| F I G I T E L K K L E S K A N K V F Z O (FIGITELKKLESKANKVF[Ahx]K; not fully specified (residue 20)) [0942-23] |  |  | ELISA OD TETAQUIN ([1]; Table 5, Ala scan of […]): 0.88; ELISA OD SERUM 034960 ([2]; Table 5, Ala scan of […]): 1.08 |
| F I G I T E L K K L E S K I N R V F Z O (FIGITELKKLESKINRVF[Ahx]K(Biotin)) [0942-43] | 1.26 | 1.31 |  |
| TNP-OVA: non-related protein antigen (OVA) coupled to the hapten TNP (trinitrophenyl group) (conjugate, UniProt P01012 2-386, looked up, trinitrophenyl hapten conjugate) Ovalbumin: GSIGAASMEFCFDVFKELKVHHANENIFYCPIAIMSALAMVYLGAKDSTRTQINKVVRFDKLPGFGDSIEAQCGTSVNVHSSLRDILNQITKPNDVYSFSLASRLYAEERYPILPEYLQCVKELYRGGLEPINFQTAADQARELINSWVESQTNGIIRNVLQPSSVDSQTAMVLVNAIVFKGLWEKAFKDEDTQAMPFRVTEQESKPVQMMYQIGLFRVASMASEKMKILELPFASGTMSMLVLLPDEVSGLEQLESIINFEKLTEWTSSNVMEERKIKVYLPRMKMEEKYNLTSVLMAMGITDVFSSSANLSGISSAESLKISQAVHAAHAEINEAGREVVGSAEAGVDAASVSEEFRADHPFLFCIKHIATNAVLFFGRCVSP |  |  | OVA-specific proliferation of CFSE labelled T cells in spleen and lymph nodes ([3]; TNP immunized mice vs other groups, single dose TNP-OVA, analysed 3 days later by flow cytometry, P<0.001): significantly different; T cell responses against OVA ([3]; TNP-BSA immunized mice compared to control mice vaccinated with BSA without TNP): much higher level |
